Measurements reported in patent publication US20230303599A1, “PRODRUGS OF PHOSPHONAMIDE NUCLEOTIDE ANALOGUES AND THEIR PHARMACEUTICAL USE” (priority 2020, published 2023).
≈ marks a conversion by molar mass, not a printed value.

Test: Kinetic solubility analysis
Assay type: physicochemical
Conditions: 1× PBS, 24.2 °C, aqueous buffer, kinetic from dmso stock; pH 7.4 PBS, 1% DMSO, 24-hour incubation at ambient temperature
Method: Example 108: Kinetic Solubility Analysis
Buffer Preparation: 0.1 N HCl: Hydrochloric acid, 0.1 N standardized solution (MP Biomedicals part number 199569). 1×PBS, pH 7.4: Phosphate Buffered Saline (PBS) solution 10× (Fisher Bioreagent part number BP399-500) 50 mL was added to approximately 450 mL HPLC grade H2O. The volume of the solution was then adjusted to 500 mL for a total dilution factor of 1:10 and a final PBS concentration of 1×.
The final DMSO concentration was 1.0% (v/v) and maximum theoretical compound concentration is 100 μM (for compound stock concentration of 10 mM). The filter plate was sealed. Following 24-hour incubation at ambient temperature (24.2-27.5° C.), the samples were vacuum filtered and the filtrates were collected in a 96 well polypropylene plate for analysis. The collection plate was sealed for analysis. Filtrates were injected into the Antek 8060 chemiluminescent nitrogen detector for quantification. The results are reported in μM.
The filtrates were quantified with respect to this calibration curve. Each calculated solubility value was corrected for background nitrogen present in the DMSO and in the medium used to prepare the sample. All reported values for compounds containing adjacent nitrogen atoms in a ring structure were increased by approximately 25%.

| SMILES | solubility kinetic at 24 h |
| --- | --- |
| C[C@H](Cn1cnc2c(N)ncnc21)OCP(=O)(NC(C)(C)C(=O)OCC(C)(C)C)NC(C)(C)C(=O)OCC(C)(C)C [Example 5] | 53 µg/mL (≈ 88.7 µM) |
| CC(C)CCOC(=O)C(C)(C)NP(=O)(CO[C@H](C)Cn1cnc2c(N)ncnc21)NC(C)(C)C(=O)OCCC(C)C [Example 6, Diisopentyl 2,2′-(((((1-(6-amino-9H-purin-9-yl)propan-2-yl)oxy)methyl)phosphoryl)bis(azanediyl))(R)-bis(2-methylpropanoate)] | 49 µg/mL (≈ 82 µM) |
| CCC(CC)CCOC(=O)C(C)(C)NP(=O)(CO[C@H](C)Cn1cnc2c(N)ncnc21)NC(C)(C)C(=O)OCCC(CC)CC [Example 7, Bis(3-ethylpentyl) 2,2′-(((((1-(6-amino-9H-purin-9-yl)propan-2-yl)oxy)methyl)phosphoryl)bis(azanediyl))(R)-bis(2-methylpropanoate)] | 7 µg/mL (≈ 10.7 µM) |
| C[C@H](Cn1cnc2c(N)ncnc21)OCP(=O)(NC(C)(C)C(=O)OCCC(C)(C)C)NC(C)(C)C(=O)OCCC(C)(C)C [Example 8, Bis(3,3-dimethylbutyl) 2,2′-(((((1-(6-amino-9H-purin-9-yl)propan-2-yl)oxy)methyl)phosphoryl)bis(azanediyl))(R)-bis(2-methylpropanoate)] | 50 µg/mL (≈ 79.9 µM) |
| CCCCCCOC(=O)[C@](C)(CC)NP(=O)(CO[C@H](C)Cn1cnc2c(N)ncnc21)N[C@@](C)(CC)C(=O)OCCCCCC [Example 10, Dihexyl 2,2′-((((((R)-1-(6-amino-9H-purin-9-yl)propan-2-yl)oxy)methyl)phosphoryl)bis(azanediyl))(2S,2′S)-bis(2-methylbutanoate)] | 7 µg/mL (≈ 10.7 µM) |
| CCCCCCOC(=O)[C@](C)(Cc1ccccc1)NP(=O)(CO[C@H](C)Cn1cnc2c(N)ncnc21)N[C@@](C)(Cc1ccccc1)C(=O)OCCCCCC [Example 11, Dihexyl 2,2′-((((((R)-1-(6-amino-9H-purin-9-yl)propan-2-yl)oxy)methyl)phosphoryl)bis(azanediyl))(2S,2'S)-bis(2-methyl-3-phenylpropanoate)] | < 1 µg/mL |
| CCCCCCOC(=O)C(C)(C)NP(=O)(CO[C@H](C)Cn1cnc2c(N)ncnc21)NC1(C(=O)OCCCCCC)CC1 (stereo partly drawn) [Example 20, Hexyl 1-((((((R)-1-(6-amino-9H-purin-9-yl)propan-2-yl)oxy)methyl)((1-(hexyloxy)-2-methyl-1-oxopropan-2-yl)amino)phosphoryl)amino)cyclopropane-1-carboxylate] | 49 µg/mL (≈ 78.6 µM) |
| CCCCCCOC(=O)C(C)(C)NP(=O)(CO[C@H](C)Cn1cnc2c(N)ncnc21)NC(C)(C)C(=O)O[C@H]1CC[C@H](C(F)(F)F)CC1 (stereo partly drawn) [Example 22, Hexyl 2-((((((R)-1-(6-amino-9H-purin-9-yl)propan-2-yl)oxy)methyl)((2-methyl-1-oxo-1-((trans-4-(trifluoromethyl)cyclohexyl)oxy)propan-2-yl)amino)phosphoryl)amino)-2-methylpropanoate] | 36 µg/mL (≈ 52 µM) |
| C[C@H](Cn1cnc2c(N)ncnc21)OCP(=O)(NC(C)(C)C(=O)OCCCCC(F)(F)F)NC(C)(C)C(=O)OCCCCC(F)(F)F [Example 25, Bis(5,5,5-trifluoropentyl) 2,2′-(((((1-(6-amino-9H-purin-9-yl)propan-2-yl)oxy)methyl)phosphoryl)bis(azanediyl))(R)-bis(2-methylpropanoate)] | 84 µg/mL (≈ 119 µM) |
| C[C@H](Cn1cnc2c(N)ncnc21)OCP(=O)(NC(C)(C)C(=O)O[C@H]1C[C@H](C(F)(F)F)C1)NC(C)(C)C(=O)O[C@H]1C[C@H](C(F)(F)F)C1 [Example 26, Bis(trans-3-(trifluoromethyl)cyclobutyl) 2,2′-((((((R)-1-(6-amino-9H-purin-9-yl)propan-2-yl)oxy)methyl)phosphoryl)bis(azanediyl))bis(2-methylpropanoate)] | 78 µg/mL (≈ 111 µM) |
| CCCCCCOC(=O)C(C)(C)NP(=O)(CO[C@H](C)Cn1cnc2c(NC(C)=O)ncnc21)NC(C)(C)C(=O)OCCCCCC [Example 28, Dihexyl 2,2′-(((((1-(6-acetamido-9H-purin-9-yl)propan-2-yl)oxy)methyl)phosphoryl)bis(azanediyl))(R)-bis(2-methylpropanoate)] | 55 µg/mL (≈ 82.4 µM) |
| CCCCCCOC(=O)C(C)(C)NP(=O)(CO[C@H](C)Cn1cnc2c(NC(=O)CCC)ncnc21)NC(C)(C)C(=O)OCCCCCC [Example 29, Dihexyl 2,2′-(((((1-(6-butyramido-9H-purin-9-yl)propan-2-yl)oxy)methyl)phosphoryl)bis(azanediyl))(R)-bis(2-methylpropanoate)] | 26 µg/mL (≈ 37.4 µM) |
| CCCCCCOC(=O)C(C)(C)NP(=O)(CO[C@H](C)Cn1cnc2c(NC(=O)OCCCCC)ncnc21)NC(C)(C)C(=O)OCCCCCC [Example 32, Dihexyl 2,2′-(((((1-(6-(((pentyloxy)carbonyl)amino)-9H-purin-9-yl)propan-2-yl)oxy)methyl)phosphoryl)bis(azanediyl))(R)-bis(2-methylpropanoate)] | < 1 µg/mL |
| CCCCOC(=O)C(C)(C)NP(=O)(CO[C@H](C)Cn1cnc2c(N)ncnc21)NC(C)(C)C(=O)OCCCC [Example 38, Dibutyl 2,2′-(((((1-(6-amino-9H-purin-9-yl)propan-2-yl)oxy)methyl)phosphoryl)bis(azanediyl))(R)-bis(2-methylpropanoate)] | 45 µg/mL (≈ 79 µM) |
| C[C@H](Cn1cnc2c(N)ncnc21)OCP(=O)(NC(C)(C)C(=O)OC1CCCCC1)NC(C)(C)C(=O)OC1CCCCC1 [Example 40, Dicyclohexyl 2,2′-(((((1-(6-amino-9H-purin-9-yl)propan-2-yl)oxy)methyl)phosphoryl)bis(azanediyl))(R)-bis(2-methylpropanoate)] | 57 µg/mL (≈ 91.7 µM) |
| C[C@H](Cn1cnc2c(N)ncnc21)OCP(=O)(NC(C)(C)C(=O)OC1CC2(CCC2)C1)NC(C)(C)C(=O)OC1CC2(CCC2)C1 (stereo partly drawn) [Example 41, Di(spiro[3.3]heptan-2-yl) 2,2′-(((((1-(6-amino-9H-purin-9-yl)propan-2-yl)oxy)methyl)phosphoryl)bis(azanediyl))(R)-bis(2-methylpropanoate)] | 54 µg/mL (≈ 83.6 µM) |
| C[C@H](Cn1cnc2c(N)ncnc21)OCP(=O)(NC(C)(C)C(=O)OC1CC(C)(C)C1)NC(C)(C)C(=O)OC1CC(C)(C)C1 [Example 42, Bis(3,3-dimethylcyclobutyl) 2,2′-(((((1-(6-amino-9H-purin-9-yl)propan-2-yl)oxy)methyl)phosphoryl)bis(azanediyl))(R)-bis(2-methylpropanoate)] | 54 µg/mL (≈ 86.9 µM) |
| CC(C)OC(=O)C(C)(C)NP(=O)(CO[C@H](C)Cn1cnc2c(N)ncnc21)NC(C)(C)C(=O)OC(C)C [Example 43, Diisopropyl 2,2′-(((((1-(6-amino-9H-purin-9-yl)propan-2-yl)oxy)methyl)phosphoryl)bis(azanediyl))(R)-bis(2-methylpropanoate)] | 53 µg/mL (≈ 97.9 µM) |
| C[C@H](Cn1cnc2c(N)ncnc21)OCP(=O)(NC(C)(C)C(=O)OC1CCC(C)(C)CC1)NC(C)(C)C(=O)OC1CCC(C)(C)CC1 [Example 44, Bis(4,4-dimethylcyclohexyl) 2,2′-(((((1-(6-amino-9H-purin-9-yl)propan-2-yl)oxy)methyl)phosphoryl)bis(azanediyl))(R)-bis(2-methylpropanoate)] | 10 µg/mL (≈ 14.8 µM) |
| C[C@H](Cn1cnc2c(N)ncnc21)OCP(=O)(NC(C)(C)C(=O)OCC1CCCC1)NC(C)(C)C(=O)OCC1CCCC1 [Example 45, Bis(cyclopentylmethyl) 2,2′-(((((1-(6-amino-9H-purin-9-yl)propan-2-yl)oxy)methyl)phosphoryl)bis(azanediyl))(R)-bis(2-methylpropanoate)] | 64 µg/mL (≈ 103 µM) |
| C[C@H](Cn1cnc2c(N)ncnc21)OCP(=O)(NC(C)(C)C(=O)OC1CCC1)NC(C)(C)C(=O)OC1CCC1 [Example 47, Dicyclobutyl 2,2′-(((((1-(6-amino-9H-purin-9-yl)propan-2-yl)oxy)methyl)phosphoryl)bis(azanediyl))(R)-bis(2-methylpropanoate)] | 72 µg/mL (≈ 127 µM) |
| CC(C)CCCCOC(=O)C(C)(C)NP(=O)(CO[C@H](C)Cn1cnc2c(N)ncnc21)NC(C)(C)C(=O)OCCCCC(C)C [Example 68, Bis(5-methylhexyl) 2,2′-(((((1-(6-amino-9H-purin-9-yl)propan-2-yl)oxy)methyl)phosphoryl)bis(azanediyl))(R)-bis(2-methylpropanoate)] | 3 µg/mL (≈ 4.59 µM) |
| CCCC(CCC)COC(=O)C(C)(C)NP(=O)(CO[C@H](C)Cn1cnc2c(N)ncnc21)NC(C)(C)C(=O)OCC(CCC)CCC [Example 69, Bis(2-propylpentyl) 2,2′-(((((1-(6-amino-9H-purin-9-yl)propan-2-yl)oxy)methyl)phosphoryl)bis(azanediyl))(R)-bis(2-methylpropanoate)] | 1 µg/mL (≈ 1.47 µM) |
| CCC(CC)COC(=O)C(C)(C)N[P@@](=O)(CO[C@H](C)Cn1cnc2c(N)ncnc21)NC1(C(=O)OCC(CC)CC)CC1 [Example 72, 2-Ethylbutyl 1-(((S)-((((R)-1-(6-amino-9H-purin-9-yl)propan-2-yl)oxy)methyl)((1-(2-ethylbutoxy)-2-methyl-1-oxopropan-2-yl)amino)phosphoryl)amino)cyclopropane-1-carboxylate] | 35 µg/mL (≈ 56.1 µM) |
